Results reported in PMC9668969 (Nature Communications, 2022).
Several values for one entry are separate records, joined by “and”; a condition that tells them apart may be missing. Identical values can stand only once.

What was measured:
Assay type in all cases: biochemical, Erwinia chrysanthemi
WT ELIC [1] = experiment: Tryptophan stopped-flow fluorescence measurements (rapid mixing with agonist, DDM); settings: for Normalized change in TRP fluorescence: single experiments
Experimental: To measure the tryptophan (Trp) fluorescence emission of ELIC, WT or W206F ELIC was diluted to 3 ml (0.02 mg/ml) and an emission spectrum was collected in a quartz fluorescence cell using a Fluoromax Plus Spectrofluorometer (Horiba Scientific). Excitation was set at 295 nm and an emission spectrum was collected from 320 to 380 nm. Trp fluorescence measurements with rapid mixing of agonist was carried out using the SX20 stopped-flow spectrofluorometer, outfitted with a 295 nm LED excitation source. Purified ELIC was diluted to 0.1 mg/ml in Trp Stopped-flow Buffer A (10 mM Tris pH 7.5, 100 mM NaCl, 0.05% DDM). A single mixing experiment was performed by mixing ELIC with equal volumes of Buffer A + propylamine. Propylamine was prepared at varying concentrations at 2x the final concentration. The instrument dead time was ~1 ms, enabling capture of most of the time course of change in Trp fluorescence. The time course of decrease in Trp fluorescence after rapid mixing with propylamine was fit to a single exponential to obtain a time constant for the rate of decrease and a measure of the extent of decrease. All replicates were taken from distinct samples.

[2] = target: T1, ELIC5 (P254G/C300S/V261Y/G319F/I320F) (Dickeya chrysanthemi, UniProt P0C7B7, C299S/G318F/I319F/P253G/V260Y); experiment: Giant liposome excised patch-clamp recordings (2:1:1 POPC:POPE:POPG)
T1 construct: host or cells: OverExpress C43 (DE3) E. coli
T1 sequence (P0C7B7 whole entry P253G/V260Y/C299S/G318F/I319F): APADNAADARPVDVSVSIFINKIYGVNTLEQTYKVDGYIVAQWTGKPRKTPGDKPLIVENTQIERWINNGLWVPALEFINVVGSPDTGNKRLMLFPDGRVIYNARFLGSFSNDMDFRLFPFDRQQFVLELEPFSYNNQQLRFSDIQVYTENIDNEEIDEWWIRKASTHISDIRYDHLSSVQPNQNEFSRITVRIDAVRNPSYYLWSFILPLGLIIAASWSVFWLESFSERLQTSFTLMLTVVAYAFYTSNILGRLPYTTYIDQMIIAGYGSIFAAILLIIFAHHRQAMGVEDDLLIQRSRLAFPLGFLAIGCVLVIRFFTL
Experimental: (§1) Giant liposome formation and excised patch-clamp recordings of ELIC were performed as previously described[12],[13]. 0.5 mg of WT ELIC, ELIC3 or ELIC5 were reconstituted in 5 mg of 2:1:1 POPC:POPE:POPG liposomes, using DDM destabilization and biobeads. 10 mM MOPS pH 7 and 150 mM NaCl (MOPS buffer) was used throughout. Proteoliposomes were pelleted and resuspended in ~80 µl, and frozen in 10 µl aliquots. Giant liposomes were formed by dehydrating 10 µl of proteoliposomes on a glass coverslip in a vacuum desiccator for ~20 min followed by rehydration with 100 µl of MOPS buffer overnight at 4 °C and 2 hr at RT the following day. The giant liposomes were resuspended by pipetting and applied to a recording chamber. The liposomes were allowed to settle for 15 min, after which free liposomes and debris were removed by exchanging the bath solution. Bath and pipette solutions contained MOPS buffer and 0.5 mM BaCl2 (Sigma). […] Rapid application or washout of agonist were performed using a three-barreled flowpipe mounted to and controlled by a SF-77B fast perfusion system (Warner Instrument Corporation). […] Deactivation time courses were fit with a single exponential while the time course of desensitization was fit with a double exponential. Weighted time constants were calculated using Eq. 1:1 Weighted Tau=A1×τ1+(A2×τ2)/A1+A2 where A1 and A2 are the amplitudes of the first and second exponential components. The data were collected and analyzed using pClamp10.4 software.

WT ELIC [3] = experiment: as above
Experimental: as §1

[4] = target: T2, ELIC3 (V261Y/G319F/I320F) (Dickeya chrysanthemi, UniProt P0C7B7, G318F/I319F/V260Y); experiment: as above
T2 construct: host or cells: OverExpress C43 (DE3) E. coli
T2 sequence (P0C7B7 whole entry V260Y/G318F/I319F): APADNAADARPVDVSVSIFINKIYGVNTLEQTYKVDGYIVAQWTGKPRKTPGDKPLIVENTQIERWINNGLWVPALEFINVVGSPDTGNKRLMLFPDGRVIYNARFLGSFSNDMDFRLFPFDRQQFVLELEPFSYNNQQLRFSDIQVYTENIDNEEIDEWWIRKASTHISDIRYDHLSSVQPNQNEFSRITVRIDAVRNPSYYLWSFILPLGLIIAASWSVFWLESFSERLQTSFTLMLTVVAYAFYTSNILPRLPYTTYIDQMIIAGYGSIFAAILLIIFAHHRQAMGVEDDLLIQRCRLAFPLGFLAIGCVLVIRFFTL
Experimental: as §1

[5] = 2:1:1 giant liposomes, 0.5 mM BaCl2, Hill n set to 2, read-out: EC50 of peak current dose response

CCCN [propylamine]
time constant of TRP fluorescence decrease (WT ELIC [1]; 10 mM propylamine, DDM): 9.9 ± 0.6 ms
Normalized change in TRP fluorescence, Average (WT ELIC [1]; DDM, Propylamine 0.3 mM): 0.01079
Normalized change in TRP fluorescence, Average (WT ELIC [1]; DDM, Propylamine 1 mM): 0.08703
Normalized change in TRP fluorescence, Average (WT ELIC [1]; DDM, Propylamine 3 mM): 0.49
Normalized change in TRP fluorescence (WT ELIC [1]; DDM, Propylamine 3 mM): 0.3909 and 0.6901 and 0.389
Normalized change in TRP fluorescence, Average (WT ELIC [1]; DDM, Propylamine 10 mM): 0.7765
Normalized change in TRP fluorescence (WT ELIC [1]; DDM, Propylamine 10 mM): 0.6381 and 0.8944 and 0.797
Normalized change in TRP fluorescence, Average (WT ELIC [1]; DDM, Propylamine 30 mM): 0.9154
Normalized change in TRP fluorescence (WT ELIC [1]; DDM, Propylamine 30 mM): 0.9392 and 0.8561 and 0.951
Normalized change in TRP fluorescence, Average (WT ELIC [1]; DDM, Propylamine 100 mM): 1
Normalized change in TRP fluorescence (WT ELIC [1]; DDM, Propylamine 100 mM): 1
Hill n of normalized change in TRP fluorescence (WT ELIC [1]; ELIC in DDM): 1.6 ± 0.3
EC50 (WT ELIC [1]; ELIC in DDM, Hill fit, read-out: EC50 of normalized change in TRP fluorescence): 4.3 ± 0.8 mM
rate of decrease in tryptophan fluorescence relative to channel opening (fold faster) (WT ELIC [1]; vs Tl+ flux in 2:1:1 or POPC liposomes): 2–4 ×

NCCS [cysteamine]
Relative current at 60s ([2]; 10 mM Cys): No evidence of desensitization
Time constant of deactivation, Deactivation Tau ([2]; 10 mM Cys): 195.719 s
Time constant of desensitizaton ([2]; 10 mM Cys): No evidence of desensitization
deactivation rate, fold slower than WT ([2]; after removal of 10 mM cysteamine): ~ 1000 ×
desensitization ([2]; in the presence of 10 mM cysteamine): no evidence of desensitization
Peak response (normalized) (WT ELIC [3]; 0.3 mM cysteamine): 0.003114
Peak response (normalized) (WT ELIC [3]; 1 mM cysteamine): 0.01807
Peak response (normalized) (WT ELIC [3]; 3 mM cysteamine): 0.2085
Relative current at 60s, Average (WT ELIC [3]; 10 mM Cys): 0.05101
Time constant of deactivation, Deactivation Tau (WT ELIC [3]; 10 mM Cys): 0.1636 s
Time constant of desensitizaton, Weighted Tau (WT ELIC [3]; 10 mM Cys): 4.764 s
Peak response (normalized) (WT ELIC [3]; 10 mM cysteamine): 0.7416
Relative current at 60s, Average (WT ELIC [3]; 30 mM Cys): 0.03561
Time constant of deactivation, Deactivation Tau (WT ELIC [3]; 30 mM Cys): 0.4008 s
Time constant of desensitizaton, Weighted Tau (WT ELIC [3]; 30 mM Cys): 2.506 s
Peak response (normalized) (WT ELIC [3]; 30 mM cysteamine): 1
EC50 (WT ELIC [3]; [5]): 5.2 mM and 4 to 5 mM
Peak response (normalized) ([4]; 0.3 mM cysteamine): 0.02035
Peak response (normalized) ([4]; 1 mM cysteamine): 0.4462
Peak response (normalized) ([4]; 3 mM cysteamine): 0.7955
Relative current at 60s, Average ([4]; 10 mM Cys): 0.1185
Time constant of deactivation, Deactivation Tau ([4]; 10 mM Cys): 1.081 s
Time constant of desensitizaton, Weighted Tau ([4]; 10 mM Cys): 12.8369 s
Peak response (normalized) ([4]; 10 mM cysteamine): 1.022
Relative current at 60s, Average ([4]; 30 mM Cys): 0.08245
Time constant of deactivation, Deactivation Tau ([4]; 30 mM Cys): 1.658 s
Time constant of desensitizaton, Weighted Tau ([4]; 30 mM Cys): 8.1999 s
Peak response (normalized) ([4]; 30 mM cysteamine): 1
EC50 [4, 5]: 1.2 ± 0.2 mM
